Experimental data as given in US20040009233A1, “Shark meat extract” (priority 2000, published 2004).

System: Angiogenesis
Experiment: Inhibition of angiogenesis by fatty acid samples
Assay type: cell-based
Source text: The phospholipid fatty acids usually include docosahexaenoic acid (DHA), arachidonic acid (AA), eicosapentaenoic acid (EPA), and others.

CCCCCCCCCCC/C=C\CCCCC(=O)O [Petroselenic]
Inhibition of Angiogenesis (sample concentration 100 μg/ml): 58%

CCCCCCC=CCCCCCCCCC(=O)O [Heptadecenoic]
Inhibition of Angiogenesis (sample concentration 20 μg/ml): 83%

CCCCC/C=C\C/C=C\CCCCCCCC(=O)O [Linoleic]
Inhibition of Angiogenesis (sample concentration 5 μg/ml): 82%

CCCCC/C=C\C/C=C\C/C=C\C/C=C\CCCC(=O)O [Arachidonic, arachidonic acid]
inhibition at 5 µg/mL (sample concentration 5 μg/ml): 84%

CCCC/C=C\CCCCCCCC(=O)O [Myristoleic]
Inhibition of Angiogenesis (sample concentration 10 μg/ml): 58%

CCCCCCCC/C=C\CCCCCCCCCCCC(=O)O [Erucic]
Inhibition of Angiogenesis (sample concentration 200 μg/ml): 30%

CC/C=C\C/C=C\C/C=C\C/C=C\C/C=C\C/C=C\CCC(=O)O [Docosahexaenoic (DHA), docosahexaenoic acid]
inhibition at 5 µg/mL (sample concentration 5 μg/ml): 88%

CCCCCCCC/C=C\CCCCCCCC(=O)O [Oleic, oleic acid]
inhibition at 100 µg/mL (read-out: Inhibition of Angiogenesis): 0%

CC/C=C\C/C=C\C/C=C\C/C=C\C/C=C\CCCC(=O)O [Eicosapentaenoic (EPA), eicosapentaenoic acid]
inhibition at 3 µg/mL (sample concentration 3 μg/ml): 100%

CC/C=C\C/C=C\C/C=C\CCCCCCCC(=O)O [α-Linolenic]
Inhibition of Angiogenesis (sample concentration 20 μg/ml): 66%

CCCCCCCC/C=C\CCCCCCCCCCCCCC(=O)O [Nervonic]
Inhibition of Angiogenesis (sample concentration 100 μg/ml): 0%

CC/C=C\C/C=C\C/C=C\C/C=C\C/C=C\CCCCCC(=O)O [Docosapentaenoic]
Inhibition of Angiogenesis (sample concentration 4 μg/ml): 71%

CCCCCC/C=C\CCCCCCCC(=O)O [Palmitoleic]
Inhibition of Angiogenesis (sample concentration 5 μg/ml): 70%
